Assays:
[1] = target: T1, Alpha-1D adrenergic receptor (Homo sapiens, UniProt P25100); test: Compound was tested for its binding affinity utilizing cloned receptor binding assays by using [125 I]HEAT as radioligand to the human Alpha-1D adrenergic receptor
T1 sequence (P25100 whole entry): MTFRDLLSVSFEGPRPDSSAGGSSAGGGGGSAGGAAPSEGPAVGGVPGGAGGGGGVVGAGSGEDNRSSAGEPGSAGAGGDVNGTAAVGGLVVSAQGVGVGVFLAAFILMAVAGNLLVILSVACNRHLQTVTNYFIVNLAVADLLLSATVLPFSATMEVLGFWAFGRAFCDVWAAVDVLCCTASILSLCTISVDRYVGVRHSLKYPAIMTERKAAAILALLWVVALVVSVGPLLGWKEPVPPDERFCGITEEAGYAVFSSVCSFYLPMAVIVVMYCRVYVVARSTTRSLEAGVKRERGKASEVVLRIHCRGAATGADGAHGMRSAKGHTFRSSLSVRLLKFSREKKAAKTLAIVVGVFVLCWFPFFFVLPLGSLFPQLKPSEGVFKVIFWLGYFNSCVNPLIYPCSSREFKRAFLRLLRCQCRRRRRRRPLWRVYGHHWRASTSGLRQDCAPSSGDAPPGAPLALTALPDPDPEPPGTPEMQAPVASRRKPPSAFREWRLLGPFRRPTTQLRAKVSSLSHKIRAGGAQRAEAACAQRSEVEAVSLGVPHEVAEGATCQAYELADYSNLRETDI

[2] = target: T2, Alpha-1A adrenergic receptor (Rattus norvegicus, UniProt P43140); test: Compound was tested for the tissue binding affinity using [3H]- Prazosin as radioligand to the rat prostate Alpha-1A adrenergic receptor subtype.
T2 sequence (P43140 whole entry): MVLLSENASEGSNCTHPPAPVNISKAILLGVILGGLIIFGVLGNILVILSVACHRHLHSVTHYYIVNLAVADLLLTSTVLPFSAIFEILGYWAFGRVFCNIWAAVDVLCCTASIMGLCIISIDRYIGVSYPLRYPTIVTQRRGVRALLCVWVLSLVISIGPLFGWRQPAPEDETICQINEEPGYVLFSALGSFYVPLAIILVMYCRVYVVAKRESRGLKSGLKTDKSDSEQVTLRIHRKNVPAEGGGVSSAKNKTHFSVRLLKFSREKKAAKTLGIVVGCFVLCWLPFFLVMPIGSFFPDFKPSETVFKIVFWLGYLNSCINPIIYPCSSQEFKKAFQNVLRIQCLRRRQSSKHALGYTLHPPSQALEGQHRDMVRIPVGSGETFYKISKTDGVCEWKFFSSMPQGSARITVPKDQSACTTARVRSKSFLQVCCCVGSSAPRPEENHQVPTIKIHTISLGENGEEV

[3] = target: T3, Alpha-1D adrenergic receptor (Rattus norvegicus, UniProt P23944); test: Compound was evaluated for its ability to displace [125I]HEAT binding from rat Alpha-1D adrenergic receptor
T3 sequence (P23944 whole entry): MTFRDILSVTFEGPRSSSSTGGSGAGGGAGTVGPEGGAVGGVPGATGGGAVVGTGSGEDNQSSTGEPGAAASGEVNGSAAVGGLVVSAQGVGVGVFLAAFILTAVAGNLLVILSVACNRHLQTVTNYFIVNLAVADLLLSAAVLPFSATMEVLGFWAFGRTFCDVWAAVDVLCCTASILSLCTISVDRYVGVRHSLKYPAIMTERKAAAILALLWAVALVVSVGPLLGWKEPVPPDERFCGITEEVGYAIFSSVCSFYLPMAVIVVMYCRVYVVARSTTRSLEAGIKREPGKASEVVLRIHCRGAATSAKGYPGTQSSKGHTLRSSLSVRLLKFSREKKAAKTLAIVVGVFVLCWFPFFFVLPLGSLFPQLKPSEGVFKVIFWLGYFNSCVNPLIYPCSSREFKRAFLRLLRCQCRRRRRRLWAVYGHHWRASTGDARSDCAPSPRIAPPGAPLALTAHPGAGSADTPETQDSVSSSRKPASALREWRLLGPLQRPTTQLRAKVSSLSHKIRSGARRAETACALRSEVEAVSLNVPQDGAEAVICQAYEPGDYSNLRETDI

[4] = target: T2, Alpha-1A adrenergic receptor; test: Compound was evaluated for its ability to displace [125I]HEAT binding from rat Alpha-1A adrenergic receptor
[5] = target: T4, Alpha-1A adrenergic receptor (Homo sapiens, UniProt P35348); test: Compound was tested for its binding affinity utilizing cloned receptor binding assays by using [125 I]HEAT as radioligand to the human Alpha-1A adrenergic receptor
T4 sequence (P35348 whole entry): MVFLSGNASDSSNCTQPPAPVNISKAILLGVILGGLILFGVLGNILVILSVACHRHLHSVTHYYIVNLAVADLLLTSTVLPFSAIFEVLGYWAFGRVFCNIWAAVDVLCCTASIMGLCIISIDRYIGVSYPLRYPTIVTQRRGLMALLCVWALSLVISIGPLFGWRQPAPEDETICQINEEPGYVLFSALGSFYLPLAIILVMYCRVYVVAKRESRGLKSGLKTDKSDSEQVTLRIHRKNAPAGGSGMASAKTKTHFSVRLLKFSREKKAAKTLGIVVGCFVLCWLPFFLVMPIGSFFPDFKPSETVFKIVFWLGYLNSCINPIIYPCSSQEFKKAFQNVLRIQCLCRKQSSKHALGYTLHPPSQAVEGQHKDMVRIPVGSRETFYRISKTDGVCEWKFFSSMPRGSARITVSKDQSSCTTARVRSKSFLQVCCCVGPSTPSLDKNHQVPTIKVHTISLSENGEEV

[6] = target: T5, Alpha-1B adrenergic receptor (Rattus norvegicus, UniProt P15823); test: Compound was tested for the tissue binding affinity using [3H]- Prazosin as radioligand to the rat liver Alpha-1B adrenergic receptor
T5 sequence (P15823 whole entry): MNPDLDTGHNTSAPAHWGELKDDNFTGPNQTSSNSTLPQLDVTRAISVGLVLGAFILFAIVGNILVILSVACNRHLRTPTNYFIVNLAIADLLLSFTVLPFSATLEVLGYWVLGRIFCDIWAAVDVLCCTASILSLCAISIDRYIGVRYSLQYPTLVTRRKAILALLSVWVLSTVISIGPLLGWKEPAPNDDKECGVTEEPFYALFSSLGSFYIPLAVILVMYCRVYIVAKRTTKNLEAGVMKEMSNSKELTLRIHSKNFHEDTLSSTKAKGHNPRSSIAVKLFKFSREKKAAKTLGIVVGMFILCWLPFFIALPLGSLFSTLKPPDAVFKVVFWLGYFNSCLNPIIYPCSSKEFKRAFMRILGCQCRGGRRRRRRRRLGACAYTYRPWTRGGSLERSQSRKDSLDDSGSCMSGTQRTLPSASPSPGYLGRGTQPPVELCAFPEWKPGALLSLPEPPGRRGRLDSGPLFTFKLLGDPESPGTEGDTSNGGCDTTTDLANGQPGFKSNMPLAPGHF

[7] = target: T5, Alpha-1B adrenergic receptor; test: Compound was tested for the tissue binding affinity using [3H]- Prazosin as radioligand to the rat spleen Alpha-1B adrenergic receptor subtype.; format: tissue-based
[8] = target: T5, Alpha-1B adrenergic receptor; test: Compound was evaluated for its ability to displace [125I]HEAT binding from rat Alpha-1B adrenergic receptor
[9] = target: T6, Alpha-1B adrenergic receptor (Homo sapiens, UniProt P35368); test: Compound was tested for the tissue binding affinity using [125I]- HEAT as radioligand to the human aorta Alpha-1B adrenergic receptor; format: tissue-based
T6 sequence (P35368 whole entry): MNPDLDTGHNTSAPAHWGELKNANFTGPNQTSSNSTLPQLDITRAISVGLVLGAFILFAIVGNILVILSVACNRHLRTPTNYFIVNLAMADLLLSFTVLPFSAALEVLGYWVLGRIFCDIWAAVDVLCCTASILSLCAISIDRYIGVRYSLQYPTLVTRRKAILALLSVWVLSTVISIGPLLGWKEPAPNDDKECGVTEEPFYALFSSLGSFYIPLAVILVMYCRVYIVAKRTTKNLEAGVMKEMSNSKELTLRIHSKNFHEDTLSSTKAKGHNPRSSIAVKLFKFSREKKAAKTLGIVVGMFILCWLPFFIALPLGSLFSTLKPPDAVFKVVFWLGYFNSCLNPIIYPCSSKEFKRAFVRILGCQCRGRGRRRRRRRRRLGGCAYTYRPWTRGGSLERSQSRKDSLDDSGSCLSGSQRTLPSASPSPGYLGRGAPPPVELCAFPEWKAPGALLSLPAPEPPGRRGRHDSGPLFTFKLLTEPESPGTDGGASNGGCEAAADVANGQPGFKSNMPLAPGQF

[10] = target: T6, Alpha-1B adrenergic receptor; test: Compound was tested for the tissue binding affinity using [125I]- HEAT as radioligand to the human aorta Alpha-1B adrenergic receptor subtype.; format: tissue-based
[11] = target: T6, Alpha-1B adrenergic receptor; test: Compound was tested for its binding affinity utilizing cloned receptor binding assays by using [125 I]HEAT as radioligand to the human Alpha-1B adrenergic receptor
[12] = target: T4, Alpha-1A adrenergic receptor; test: Compound was tested for the tissue binding affinity using [3H]- Prazosin as radioligand to the human prostate Alpha-1A adrenergic receptor subtype
[13] = target: T1, Alpha-1D adrenergic receptor; test: Compound was tested for binding affinity utilizing cloned receptor binding assays by using [125 I]HEAT as radioligand to the human Alpha-1D adrenergic receptor
[14] = target: T4, Alpha-1A adrenergic receptor; test: Compound was tested for binding affinity utilizing cloned receptor binding assays by using [125 I]HEAT as radioligand to the human Alpha-1A adrenergic receptor
[15] = target: T6, Alpha-1B adrenergic receptor; test: Compound was tested for binding affinity utilizing cloned receptor binding assays by using [125 I]HEAT as radioligand to the human Alpha-1B adrenergic receptor
[16] = target: T4, Alpha-1A adrenergic receptor; test: Compound was tested for the tissue binding affinity using [3H]- Prazosin as radioligand to the human prostate Alpha-1A adrenergic receptor subtype.
[17] = target: T2, Alpha-1A adrenergic receptor; test: Compound was tested for the tissue binding affinity using [3H]- Prazosin as radioligand to the rat prostate Alpha-1A adrenergic receptor subtype
[18] = target: T5, Alpha-1B adrenergic receptor; test: Compound was tested for the tissue binding affinity using [3H]- Prazosin as radioligand to the rat spleen Alpha-1B adrenergic receptor subtype; format: tissue-based
[19] = target: T6, Alpha-1B adrenergic receptor; test: Compound was tested for its binding affinity utilizing cloned receptor binding assays by using [125 I]HEAT as radioligand to the human Alpha-1B adrenergic receptor (n >= 2)

SMILES | Ki [1] [nM] | IC50 [2] [nM] | Ki [3] [nM] | Ki [4] [nM] | Ki [5] [nM] | IC50 [6] [nM] | IC50 [7] [nM] | Ki [8] [nM] | IC50 [9] [nM] | IC50 [10] [nM] | Ki [11] [nM] | IC50 [12] [nM] | Ki [13] [nM] | Ki [14] [nM] | Ki [15] [nM] | IC50 [16] [nM] | IC50 [17] [nM] | IC50 [18] [nM] | Ki [19] [nM]
COc1cc2nc(N3CCN(C(=O)OCc4ccccc4)[C@H](C(=O)NC(C)(C)C)C3)nc(N)c2cc1OC [L-765314] | 34 | 340 | 50 | 500 | 420 | 9.3 | 9.3 | 5.4 | 5800 | 8.8 | 2 | 590 |  |  |  |  |  |  | 
COc1ccccc1N1CCN(CCN2C(=O)CC3(CCCC3)CC2=O)CC1 [BMY-7378] |  |  |  |  |  |  |  | 328 |  |  |  |  |  |  |  |  |  |  | 191
COc1cc2nc(N3CCN(C(=O)C4CCCO4)CC3)nc(N)c2cc1OC (configuration not stated) [TERAZOSIN] | 2 |  | 3.4 |  |  |  |  | 1.9 |  |  |  |  |  |  |  |  |  |  | 

Now from value to compound:

Ki [1] [nM] | IC50 [2] [nM] | Ki [3] [nM] | Ki [4] [nM] | Ki [5] [nM] | IC50 [6] [nM] | IC50 [7] [nM] | Ki [8] [nM] | IC50 [9] [nM] | IC50 [10] [nM] | Ki [11] [nM] | IC50 [12] [nM] | Ki [13] [nM] | Ki [14] [nM] | Ki [15] [nM] | IC50 [16] [nM] | IC50 [17] [nM] | IC50 [18] [nM] | Ki [19] [nM] | SMILES
 |  | 630 | 510 |  | 2700 | 1500 | 1500 |  | 31 |  |  | 250 | 830 | 25 | 1700 |  |  |  | COc1cc2nc(N3CCN[C@H](C(=O)NC(C)(C)C)C3)nc(N)c2cc1OC
 |  | 78 | 580 |  | 15 |  | 7 |  |  |  | 1900 | 73 | 1700 | 3.5 |  | 2000 | 14 |  | COc1cc2nc(N3CCN(C(=O)c4ccco4)[C@H](C(=O)NC(C)(C)C)C3)nc(N)c2cc1OC
